Measured values reported in the supplement of paper PMC10307832.

How the values were obtained:
Assay in all cases: relative viability (nuclei count vs DMSO), 5 days (fraction); higher = more cells survive
AZD5582 + Alpelisib = compound: C[C@@H](C(=O)N[C@@H](C1CCCCC1)C(=O)N2CCC[C@H]2C(=O)N[C@@H]3[C@@H](CC4=CC=CC=C34)OCC#CC#CCO[C@@H]5CC6=CC=CC=C6[C@@H]5NC(=O)[C@@H]7CCCN7C(=O)[C@H](C8CCCCC8)NC(=O)[C@H](C)NC)NC [AZD5582] + Cc1nc(NC(=O)N2CCC[C@H]2C(N)=O)sc1-c1ccnc(C(C)(C)C(F)(F)F)c1 [Alpelisib] (partner 2 µM)
Method in brief: (§1)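 Relative viability is defined as nuclei in treated wells over nuclei in vehicle wells. Duplicate plates were run and medians reported. Lung cancer cell lines in 1536-well plates were dosed by pin tool one day after seeding, with one drug or with a fixed anchor-drug dose plus five library-drug doses (not always all listed) in √10 steps, and nuclei were counted after 5 days.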

AZD5582 + Linsitinib = compound: C[C@@H](C(=O)N[C@@H](C1CCCCC1)C(=O)N2CCC[C@H]2C(=O)N[C@@H]3[C@@H](CC4=CC=CC=C34)OCC#CC#CCO[C@@H]5CC6=CC=CC=C6[C@@H]5NC(=O)[C@@H]7CCCN7C(=O)[C@H](C8CCCCC8)NC(=O)[C@H](C)NC)NC [AZD5582] + C[C@]1(O)C[C@@H](c2nc(-c3ccc4ccc(-c5ccccc5)nc4c3)c3c(N)nccn32)C1 [Linsitinib] (partner 1 µM)
Method in brief: as §1

AZD5582 + AZD7762 = compound: C[C@@H](C(=O)N[C@@H](C1CCCCC1)C(=O)N2CCC[C@H]2C(=O)N[C@@H]3[C@@H](CC4=CC=CC=C34)OCC#CC#CCO[C@@H]5CC6=CC=CC=C6[C@@H]5NC(=O)[C@@H]7CCCN7C(=O)[C@H](C8CCCCC8)NC(=O)[C@H](C)NC)NC [AZD5582] + NC(=O)Nc1cc(-c2cccc(F)c2)sc1C(=O)N[C@H]1CCCNC1 [AZD7762] (partner 0.2 µM); details: first compound 0.05 µM
Method in brief: as §1

Temozolomide + Olaparib = compound: Cn1nnc2c(C(N)=O)ncn2c1=O [Temozolomide] + O=C(c1cc(Cc2n[nH]c(=O)c3ccccc23)ccc1F)N1CCN(C(=O)C2CC2)CC1 [Olaparib] (partner 8 µM)
Method in brief: as §1

AZD5582 + Olaparib = compound: C[C@@H](C(=O)N[C@@H](C1CCCCC1)C(=O)N2CCC[C@H]2C(=O)N[C@@H]3[C@@H](CC4=CC=CC=C34)OCC#CC#CCO[C@@H]5CC6=CC=CC=C6[C@@H]5NC(=O)[C@@H]7CCCN7C(=O)[C@H](C8CCCCC8)NC(=O)[C@H](C)NC)NC [AZD5582] + O=C(c1cc(Cc2n[nH]c(=O)c3ccccc23)ccc1F)N1CCN(C(=O)C2CC2)CC1 [Olaparib] (partner 8 µM)
Method in brief: as §1

AZD5582 + Bortezomib = compound: C[C@@H](C(=O)N[C@@H](C1CCCCC1)C(=O)N2CCC[C@H]2C(=O)N[C@@H]3[C@@H](CC4=CC=CC=C34)OCC#CC#CCO[C@@H]5CC6=CC=CC=C6[C@@H]5NC(=O)[C@@H]7CCCN7C(=O)[C@H](C8CCCCC8)NC(=O)[C@H](C)NC)NC [AZD5582] + CC(C)C[C@H](NC(=O)[C@H](Cc1ccccc1)NC(=O)c1cnccn1)B(O)O [Bortezomib] (partner 0.002 µM)
Method in brief: as §1

NCI-H1703
relative viability (AZD5582 + Alpelisib; first compound 0.001581 µM): 0.208
relative viability (AZD5582 + Alpelisib; first compound 0.005 µM): 0.323
relative viability (AZD5582 + Alpelisib; first compound 0.01581 µM): 0.358
relative viability (AZD5582 + Alpelisib; first compound 0.05 µM): 0.255
relative viability (AZD5582 + Linsitinib; first compound 0.005 µM): 0.666
relative viability (AZD5582 + Linsitinib; first compound 0.01581 µM): 1.02
relative viability (AZD5582 + Linsitinib; first compound 0.05 µM): 0.44
relative viability (AZD5582 + AZD7762): 0.126
relative viability (Temozolomide + Olaparib; first compound 0.2 µM): 0.497
relative viability (Temozolomide + Olaparib; first compound 0.6325 µM): 0.43
relative viability (Temozolomide + Olaparib; first compound 2 µM): 0.469
relative viability (Temozolomide + Olaparib; first compound 6.325 µM): 0.405
relative viability (Temozolomide + Olaparib; first compound 20 µM): 0.448
relative viability (AZD5582 + Olaparib; first compound 0.005 µM): 0.413
relative viability (AZD5582 + Olaparib; first compound 0.01581 µM): 0.487
relative viability (AZD5582 + Olaparib; first compound 0.05 µM): 0.54
relative viability (AZD5582 + Bortezomib; first compound 0.001581 µM): 0.228
relative viability (AZD5582 + Bortezomib; first compound 0.005 µM): 0.277
relative viability (AZD5582 + Bortezomib; first compound 0.01581 µM): 0.43
relative viability (AZD5582 + Bortezomib; first compound 0.05 µM): 0.2
